Measurements as given in publication PMC11523249, “Expanding the antiprotozoal activity and the mechanism of action of n-butyl and iso-butyl ester of quinoxaline-1,4-di-N-oxide derivatives against Giardia lamblia, Trichomonas vaginalis, and Entamoeba histolytica. An in vitro and in silico approach” (Journal of Enzyme Inhibition and Medicinal Chemistry, 2024).
Read-outs that look alike come from different tables or passages of the source.

How the values were obtained:
[1] = system: G. lamblia WB strain; experiment: In vitro susceptibility assay, G. lamblia trophozoites; assay type: cell-based, Giardia lamblia; conditions: for Selectivity index, G. lamblia versus macrophages: CC50 J774.2 / IC50 G. lamblia
Protocol: (§1) G. lamblia WB strain, T. vaginalis GT3 strain, and E. histolytica strain HM1-IMSS were used in all experiments, all parasitic strains were obtained from the Unidad de Investigación Médica en Enfermedades Infecciosas y Parasitarias, Hospital de Pediatría, Instituto Mexicano del Seguro Social. In vitro susceptibility assays to determine IC50 values were performed using a method previously described. For this, 4 × 10^4 G. lamblia; 6 × 10^3 E. histolytica, or 4 × 10^4 T. vaginalis trophozoites were incubated for 48 h at 37 °C with different concentrations of quinoxaline derivatives T-137 to T-170 (0.5 ng/mL to 10 μg/mL) using dimethyl sulfoxide (DMSO) (0.05%) as solvent. Metronidazole and albendazole were used as positive controls, and parasites in the medium without drugs containing DMSO (0.05%) were included as negative controls. At the end of the incubation period, trophozoites were washed and subcultured for another 48 h in a fresh medium without drugs. Then, trophozoites were counted with a haemocytometer and the IC50 was calculated by Probit analysis. Experiments were carried out in triplicate and repeated at least twice.

[2] = system: T. vaginalis GT3 strain; experiment: In vitro susceptibility assay, T. vaginalis trophozoites; assay type: cell-based, Trichomonas vaginalis
Protocol: as §1

[3] = system: E. histolytica strain HM1-IMSS; experiment: In vitro susceptibility assay, E. histolytica trophozoites; assay type: cell-based, Entamoeba histolytica; conditions: for IC50: Entamoeba histolytica, 48 h, read-out: E. histolytica (IC50 nM), trophozoites, 48 h at 37 °C, subcultured 48 h, Probit analysis
Protocol: as §1

[4] = system: murine macrophage cell line J774.2; experiment: Cytotoxic evaluation, MTT colorimetric assay; assay type: cell-based; conditions: murine macrophages J774.2, read-out: Cytotoxicity (Macrophages J774.2) (CC50)
Protocol: The murine macrophage cell line J774.2 was maintained in culture flasks with RPMI 1640 medium supplemented with 10% FBS, and 100 U/mL antibiotic-antifungal mixture (Gibco). Cells were incubated at 37 °C with 5% CO2 and humidity. Murine macrophage cell line J774.2 is maintained at Laboratorio de Estudios Epidemiológicos, Clínicos, Diseños Experimentales e Investigación, Facultad de Ciencias Químicas, Universidad Autónoma “Benito Juárez” de Oaxaca. Macrophages were washed and viability was assessed by the MTT colorimetric assay. In a 96-well microplate, 1 × 10^5 macrophages were added per well and a dose-response assay was performed. Compounds were evaluated using serial dilutions to determine half-maximal cytotoxic concentration (CC50) values in triplicate considering 0.2% DMSO as negative control.

[5] = biological target: T1, recombinant GlTIM (Giardia intestinalis, UniProt P36186); experiment: Inhibition of recombinant GlTIM enzyme activity; assay type: biochemical, Giardia lamblia
T1 construct: His-tag with TEV site (pET3a-HisTEV); made in house; host or cells: Escherichia coli BL21(DE3) pLys
T1 sequence (P36186 whole entry): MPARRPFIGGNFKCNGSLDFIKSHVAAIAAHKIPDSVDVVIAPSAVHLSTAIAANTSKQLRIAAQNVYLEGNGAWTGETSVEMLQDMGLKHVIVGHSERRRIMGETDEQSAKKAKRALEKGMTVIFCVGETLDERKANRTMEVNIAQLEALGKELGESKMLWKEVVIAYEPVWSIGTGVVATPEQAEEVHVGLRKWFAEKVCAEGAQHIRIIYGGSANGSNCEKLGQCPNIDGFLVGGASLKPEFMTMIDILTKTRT
Protocol: Escherichia coli BL21(DE3) pLys bacteria containing the plasmid pET3a-HisTEV with the gene coding for GlTIM wild type were grown in LB medium supplemented with 0.1 mg/mL ampicillin and incubated at 37 °C[40]. When the cultures reached Abs600 = 0.8, they were induced to express the recombinant enzyme using 0.4 mM IPTG and incubated overnight at 30 °C with shaking at 180 rpm. After induction and growth, the bacteria were collected by centrifugation (6500 rpm, 15 min) and suspended in 40 mL of lysis buffer (pH 8.0) containing 50 mM Tris, 50 mM NaCl, 5 mM β-mercaptoethanol, and 1 mM phenylmethylsulfonyl fluoride (PMSF). The bacterial suspension was disrupted by sonication and centrifuged at 9000 rpm for 1 h, at 4 °C. Protein purification was performed via IMAC using a Profinity Ni^2+ charged resin previously equilibrated with lysis buffer. The soluble protein fraction was mixed with the equilibrated Ni^2+ charged resin and incubated at room temperature with shaking for 30 min. Then, the column was washed with the same buffer (10 column volumes) to remove proteins without the His-tag sequence. The desired proteins were eluted with lysis buffer containing 200 mM imidazole and adjusted to pH 8.0. The purified protein was concentrated using Amicon ultrafiltration units. The purity of the enzymes was analysed via sodium dodecyl sulfate-polyacrylamide gel electrophoresis (16% SDS–PAGE gel) and stained with colloidal Coomassie Brilliant Blue. The enzyme concentration was spectrophotometrically determined (Spectrophotometer Cary 50, Varian Inc.) at 280 nm using the extinction coefficient ε280 = 26,600 M^−1 cm^−1.
(§2) For the inhibition assays, freshly purified recombinant GlTIM was incubated at 0.2 mg/mL for 2 h at 37 °C in the presence of 500 μM of each n-butyl and iso-butyl quinoxaline-7-carboxylate-1,4-di-N-oxide derivatives. After incubation, the samples were diluted, and 5 ng/mL were taken to measure their enzymatic activity. Enzyme activity was spectrophotometrically measured (Spectrophotometer Cary 50, Agilent Technologies, CA, USA) by following DHAP synthesis with a coupled system that followed the oxidation of NADH at 340 nm[41]. Results are expressed as the percent activity versus each compound at 500 μM, with the enzyme activity without any drug set as 100%. Additionally, GlTIM and HsTIM (separately) were incubated at 0.2 mg/mL for 2 h at 37 °C in the presence of 5, 10, 50, 150, 250, 350, and 500 μM of the T-167 derivative. Results are expressed as the percent activity versus T-167 concentration. All results represent the arithmetic mean of at least four independent experiments.

[6] = biological target: T2, recombinant E. histolytica thioredoxin reductase (EhTRXR) (Entamoeba histolytica, UniProt C4LW95); experiment: Inhibition of EhTrxR DTNB reductase activity; assay type: biochemical; conditions: for inhibition at 100 µM: pH 7, read-out: EhTrxR inhibitory effect (disulphide reductase activity)
T2 construct: His-tag (pET28a) (N); made in house; host or cells: E. coli BL21 (DE3)
T2 sequence (C4LW95 1-314): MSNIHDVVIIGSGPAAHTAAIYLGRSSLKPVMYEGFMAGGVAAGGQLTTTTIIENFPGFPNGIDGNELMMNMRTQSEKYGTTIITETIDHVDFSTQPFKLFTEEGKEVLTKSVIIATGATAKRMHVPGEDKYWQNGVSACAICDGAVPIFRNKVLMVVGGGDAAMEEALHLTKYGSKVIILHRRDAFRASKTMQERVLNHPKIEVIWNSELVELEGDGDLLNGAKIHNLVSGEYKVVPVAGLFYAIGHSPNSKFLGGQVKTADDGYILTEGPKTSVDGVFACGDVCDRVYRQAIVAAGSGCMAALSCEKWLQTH
Protocol: Recombinant E. histolytica thioredoxin reductase (EhTRXR) was expressed in E. coli BL21 (DE3) as His-tag (N-terminal) recombinant proteins using pET28a vector, and it was purified using IMAC as previously described. 5,5′-Dithiobis(2-nitrobenzoic acid) (DTNB) reductase activity was measured by monitoring the production of thionitrobenzoate at 405 nm in a reaction mixture comprising 50 mM potassium phosphate, pH 7.0, 2 mM EDTA, 300 µM NADPH, 5 mM DTNB, and 0.1 µM EhTRXR. Activity was calculated using the molar extinction coefficient at 405 nm of 13.6 mM^−1cm^− 1 and considering that 1 mol of NADPH yields 2 mol of thionitrobenzoate. The enzyme assays were performed at 30 °C, in a final volume of 50 μL, and using a Multiskan Ascent one-channel vertical light path filter photometer (Thermo Electron Co.). All results represent the arithmetic mean of at three independent experiments.

[7] = system: G. lamblia trophozoites (WB strain); experiment: Attachment and viability of G. lamblia trophozoites; assay type: cell-based, Giardia lamblia; conditions: for Concentration at which detachment and cytotoxicity took impact: 24 h of incubation at 37 °C; for Detachment of trophozoites: cultures incubated with compound
Protocol: Cytotoxicity of a drug is not the only important characteristic to cope with the pathogenesis of G. lamblia. It is known that the attachment of the trophozoites to the microvillus border of the small intestine is a crucial step for causing disease. […] T-143 and T-146 had the highest cytotoxic effect on giardia trophozoites (Figure 2(A,B), respectively). Detachment of trophozoites in cultures incubated with T-146 or T-161 was undetectable, with their impact directly through cytotoxicity (Figure 2(B)).

[8] = biological target: T3, human TIM (HsTIM) (Homo sapiens, UniProt P60174); experiment: Inhibition of recombinant HsTIM enzyme activity; assay type: biochemical
T3 construct: His-tag with TEV site (pET3a-HisTEV); made in house; host or cells: E. coli BL21-CodonPlus (DE3)-RIL
T3 sequence (P60174 whole entry): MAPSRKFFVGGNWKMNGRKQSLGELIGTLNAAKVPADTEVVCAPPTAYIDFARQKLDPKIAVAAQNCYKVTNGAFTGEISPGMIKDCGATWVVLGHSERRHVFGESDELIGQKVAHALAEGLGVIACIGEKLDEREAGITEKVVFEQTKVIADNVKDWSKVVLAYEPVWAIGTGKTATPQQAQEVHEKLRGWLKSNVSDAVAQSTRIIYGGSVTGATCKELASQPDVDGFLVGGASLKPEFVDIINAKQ
Protocol: Expression of human TIM (HsTIM) was performed by using the E. coli BL21-CodonPlus (DE3)-RIL strain (Stratagene) containing the plasmid pET3a-HisTEV with the gene coding for HsTIM. Expression and purification steps were as above-mentioned for GlTIM. The enzyme concentration was spectrophotometrically determined (Spectrophotometer Cary 50, Varian Inc.) at 280 nm using the extinction coefficient ε280 = 33,460 M^−1 cm^−1.
as §2

[9] = biological target: T1, recombinant GlTIM; set-up: method as in PMID 25223993; conditions: cited from earlier work
[10] = Giardia duodenalis, 48 h, read-out: G. lamblia (IC50 nM), trophozoites, 48 h at 37 °C, subcultured 48 h, Probit analysis
[11] = read-out: G. lamblia (IC50 nM), trophozoites, 48 h at 37 °C, subcultured 48 h, Probit analysis
[12] = Trichomonas vaginalis, GT3, 48 h, read-out: T. vaginalis (IC50 nM), trophozoites, 48 h at 37 °C, subcultured 48 h, Probit analysis
[13] = read-out: T. vaginalis (IC50 nM), trophozoites, 48 h at 37 °C, subcultured 48 h, Probit analysis

SMILES	IC50 [1, 10] [nM]	IC50 [1, 11] [nM]	IC50 [2, 12] [nM]	IC50 [2, 13] [nM]	IC50 [3] [nM]	CC50 [4] [nM]	inhibition at 500 µM ([5]; 500 µM compound, 2 h at 37 °C) [%]	inhibition at 100 µM [6] [%]	Concentration at which detachment and cytotoxicity took impact [7] [µM]	also measured
CCCCOC(=O)c1ccc2c(c1)[n+]([O-])c(C(=O)Nc1ccc(Cl)cc1)c(C)[n+]2[O-] [Compound T-143]	< 30	29.1 ± 5.83	< 90	45.2 ± 6.99	15.1 ± 2.33	50300 ± 2800	43.7	50 to 75	25	Selectivity index, G. lamblia versus macrophages [1]: 1726 fold; Selectivity index, T. vaginalis versus macrophages ([2]; CC50 J774.2 / IC50 T. vaginalis): 1112 fold; Selectivity index, E. histolytica versus macrophages ([3]; CC50 J774.2 / IC50 E. histolytica): 3321 fold
CC(=O)c1c(C(F)(F)F)[n+]([O-])c2ccc(C(=O)OCC(C)C)cc2[n+]1[O-] [Compound T-167]	< 30	25.5 ± 1.34	< 90	90 ± 6.72	64.5 ± 5.38	25400 ± 81.5	99.7	–	25	Selectivity index, G. lamblia versus macrophages [1]: 994 fold; inhibition at 10 µM ([5]; 10 µM T-167, 2 h at 37 °C): > 20%; GlTIM inhibition ([5]; 500 µM compound, 2 h at 37 °C): wholly inhibited; GlTIM residual activity ([5]; 50 to 350 µM T-167): ~25%; Decrease of GlTIM enzyme activity ([5]; <10 to 50 µM T-167): above 70%; Effect on HsTIM enzyme activity ([8]; 10 µM T-167, 2 h at 37 °C): unaffected; HsTIM retained activity ([8]; 500 µM T-167, when GlTIM activity is completely depleted): more than 75%; HsTIM loss of activity ([8]; 50 to 350 µM T-167): no more than 10%
Cc1c(C(=O)Nc2ccc(Cl)cc2)[n+]([O-])c2cc(C(=O)OCC(C)C)ccc2[n+]1[O-] [Compound T-161]	120 ± 1.16	–	137 ± 3.5	–	29.1 ± 3.5	–	19.7	> 75	25	IC50 ([6]; DTNB reductase activity, 30 °C, pH 7.0): 18000 nM; Detachment of trophozoites [7]: undetectable
CCCCOC(=O)c1ccc2c(c1)[n+]([O-])c(C(=O)OCC)c(C(F)(F)F)[n+]2[O-] [Compound T-146]	< 30	26.1 ± 6.22	~100	102 ± 2.49	64.7 ± 3.73	> 200000	37.3	50 to 75	25	Detachment of trophozoites [7]: undetectable
COc1ccc2[nH]c([S+]([O-])Cc3ncc(C)c(OC)c3C)nc2c1 (stereo not shown) [omeprazole]	–	–	–	–	–	–	–	–	–	Concentration attaining 70% inhibition of GlTIM [9]: about 300 µM; Concentration wholly inhibiting GlTIM activity [9]: 750 µM
CC(C)COC(=O)c1ccc2c(c1)[n+]([O-])c(C(=O)Nc1ccccc1)c(-c1ccccc1)[n+]2[O-] [Compound T-169]	98.4 ± 2.19	–	116 ± 5.47	–	43.7 ± 2.19	> 200000	–	50 to 75	–	–
Cc1c(C(=O)c2ccccc2)[n+]([O-])c2cc(C(=O)OCC(C)C)ccc2[n+]1[O-] [Compound T-157]	43.4 ± 1.32	–	153 ± 6.58	–	55.2 ± 5.26	34200 ± 3040	–	50 to 75	–	–
